The values that follow come from paper PMC10149214 (The Journal of Biological Chemistry, 2023).

One series has as its target CRAF^WT (Homo sapiens, UniProt P04049). The experiment in a line: TR-FRET kinase inhibition assay (MEK1 activation loop phosphorylation), CRAF^WT dimer. In general terms: Time-resolved FRET reads energy transfer from a long-lived donor to a nearby acceptor.
A further series deals with CRAF. The arrangement: method as in PMID 33355204. The following applies: purified CRAF; reaction conditions not provided; cited from earlier work.
A further series deals with T1, ARAF^SSDD (Homo sapiens, UniProt P10398, G300S/Y301D/Y302D).
T1 sequence (P10398 274-606 G300S/Y301D/Y302D): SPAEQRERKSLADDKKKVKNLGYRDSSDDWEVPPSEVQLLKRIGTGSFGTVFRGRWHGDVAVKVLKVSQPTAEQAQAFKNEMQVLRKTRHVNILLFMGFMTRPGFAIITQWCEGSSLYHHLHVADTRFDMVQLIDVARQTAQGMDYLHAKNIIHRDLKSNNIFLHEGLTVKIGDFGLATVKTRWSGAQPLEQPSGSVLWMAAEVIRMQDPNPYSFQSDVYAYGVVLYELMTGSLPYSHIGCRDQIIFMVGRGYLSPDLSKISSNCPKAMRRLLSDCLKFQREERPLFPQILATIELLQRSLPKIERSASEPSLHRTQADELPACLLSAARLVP
In words: TR-FRET kinase inhibition assay (MEK1 activation loop phosphorylation), ARAF^SSDD dimer. The following applies: for Hill slope: four-parameter fit, ARAF^SSDD 10 nM, ATP 200 μM.

In another series the target is BRAF^WT (Homo sapiens, UniProt P15056). The experiment in a line: TR-FRET kinase inhibition assay (MEK1 activation loop phosphorylation), BRAF^WT dimer.
For a further series, the target named is BRAF^V600E (Homo sapiens, UniProt P15056, V600E). In words: TR-FRET kinase inhibition assay (MEK1 activation loop phosphorylation), BRAF^V600E monomer.
A further series concerns the target CRAF^SSDD (Homo sapiens, UniProt P04049, Y340D/Y341D). In words: TR-FRET kinase inhibition assay (MEK1 activation loop phosphorylation), CRAF^SSDD dimer.
Details of series [1]: method as in PMID 28082416, PMID 25792358. The following applies: cited from earlier work.

Molecules are shown by their SMILES. “And” between values parts separate entries of the source, which are not always exact repeats. Identical values can stand only once.

For `Cc1ccc(NC(=O)c2ccnc(C(F)(F)F)c2)cc1-c1cc(OCCO)nc(N2CCOCC2)c1` [Naporafenib, N-(3-(2-(2-Hydroxyethoxy)-6-morpholinopyridin-4-yl)-4-methylphenyl)-2-(trifluoromethyl)isonicotinamide], the Ki (in general, a measure of affinity in units of concentration, obtained from inhibition or displacement) on CRAF^WT came to 0.04 ± 0.03 nM; at ARAF^SSDD it was 5.71 ± 2.97 nM; at BRAF^WT it was 0.13 ± 0.08 nM; at BRAF^V600E, 2.04 ± 0.83 nM; at CRAF^SSDD, 0.01 ± 0.001 nM. In addition, the IC50 (in general, the concentration needed to halve the response being measured) on CRAF^WT (IC50, CRAF^WT 4 nM, ATP 200 μM, WT MEK1 substrate 250 nM, mean ± SD) was 3.7 nM and 3.66 nM; in the series on CRAF, 0.07 nM; at ARAF^SSDD, 414 ± 186 nM; at BRAF^WT, 13.4 ± 0.3 nM; at BRAF^V600E, 49.2 ± 3 nM; on CRAF^SSDD, 3.64 ± 0.36 nM. Moreover, the Hill slope (as a rule, the slope factor of the fitted curve) is on record as −2.57 ± 0.65 at CRAF^WT (four-parameter fit, CRAF^WT 4 nM, ATP 200 μM); −0.78 ± 0.05 at ARAF^SSDD; −2.73 ± 0.23 at BRAF^WT (four-parameter fit, BRAF^WT 1 nM, ATP 200 μM); −0.96 ± 0.09 at BRAF^V600E (four-parameter fit, BRAF^V600E 1 nM, ATP 200 μM); −3.03 ± 0.73 on CRAF^SSDD (four-parameter fit, CRAF^SSDD 1 nM, ATP 200 μM).
For `C[C@@H](NC(=O)c1ncnc(N)c1Cl)c1ncc(C(=O)Nc2cc(C(F)(F)F)c(Cl)cn2)s1` [Tovorafenib], the Brain penetration entry in series [1] was “brain-penetrant”. At ARAF^SSDD, this molecule gave an IC50 of over 3000 nM, a Ki of over 40 nM and a Hill slope of −1.12 ± 0.42. The “Inhibition of ARAF^SSDD at highest inhibitor concentration” value at ARAF^SSDD (10 μM, the highest inhibitor concentration achievable in this assay) is listed as “did not completely inhibit”.
